# Like-named read-outs stand apart in the source and are kept apart here.
# Key:
# [1] = molecular target: T1, human Cot catalytic domain (30-397 amino acids) (Homo sapiens, UniProt P41279); test: High Throughput Cot Biochemical Assay (KinEASE TR-FRET); conditions: Cot KinEASE TR-FRET, 400 μM ATP; read-out: IC50 HTRF
# T1 construct: Purified recombinant human Cot catalytic domain (30-397 amino acids) was purchased from Cama Biosciences; purchased Cama Biosciences (so in the source)
# Method in brief: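 Recombinant human Cot catalytic domain (aa 30-397), 5 nM, with 1 μM STK3 peptide and 400 μM ATP in MOPS pH 7.0 buffer with MgOAc, DTT, BSA, NP-40, glycerol, 0.1% DMSO. Phosphorylated XL665-peptide detected by Eu-[…] antibody TR-FRET.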
# [2] = tested on: TNFα production in LPS-stimulated human monocytes; test: Cot Monocyte TNFα Cell Based Assay; conditions: Homo sapiens, Monocyte, read-out: EC50 TNF
# Method in brief: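 Human monocytes (5,000 cells/well) pretreated with compound for 1 hour at 37° C (0.5% DMSO), then stimulated with 50 pg/ml LPS for 4 hours. Total TNFα measured by TR-FRET after overnight antibody incubation at room temp, expressed as percent of control between unstimulated and stimulated cells.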
# [3] = LPS-stimulated human monocytes, TNFα TR-FRET
# T1 sequence (P41279 30-397): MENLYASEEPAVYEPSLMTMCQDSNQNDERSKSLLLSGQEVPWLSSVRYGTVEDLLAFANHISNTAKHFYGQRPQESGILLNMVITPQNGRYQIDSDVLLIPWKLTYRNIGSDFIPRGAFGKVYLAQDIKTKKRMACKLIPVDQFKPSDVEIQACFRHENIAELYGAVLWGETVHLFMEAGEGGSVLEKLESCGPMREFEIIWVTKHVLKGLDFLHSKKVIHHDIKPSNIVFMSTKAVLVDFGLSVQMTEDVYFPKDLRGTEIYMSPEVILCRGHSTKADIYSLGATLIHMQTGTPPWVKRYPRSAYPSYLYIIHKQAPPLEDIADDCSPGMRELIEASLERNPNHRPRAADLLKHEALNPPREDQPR
Compound,IC50 [1],"EC50 [2, 3]",EC50 [2]
"[2H][C@](Nc1cc(Cl)c2ncc(C#N)c(NCC(C)(C)C)c2c1)(c1ccc(Cl)cc1)c1cn(C2CCN(C3CC3)CC2)nn1 [Example 982, (S)-8-chloro-6-(((4-chlorophenyl)(1-(1-cyclopropylpiperidin-4-yl)-1H-1,2,3-triazol-4-yl)methyl-d)amino)-4-(neopentylarnino) quinoline-3-carbonitrile]",23 nM,540 nM,–
"CC(C)(C)CNc1c(C#N)cnc2c(C#N)cc(N[C@@H](c3ccc(F)cc3)c3cn(C4(c5cnccn5)CC4)nn3)cc12 [Example 984, (S)-6-(((4-fluorophenyl)(1-(1-(pyrazin-2-yl)cyclopropyl)-1H-1,2,3-triazol-4-yl)methyl)amino)-4-(neopentylamino)quinoline-3,8-dicarbonitrile]",125 nM,93 nM,–
"N#Cc1cnc2c(Cl)cc(N[C@@H](c3ccccc3)c3cn(C4CC4)nn3)cc2c1N[C@@H](c1ccccc1)C(F)(F)CO [Example 986, 8-chloro-6-(((S)-(1-cyclopropyl-1H-1,2,3-triazol-4-yl)(phenyl)methyl)amino)-4-(((S)-2,2-difluoro-3-hydroxy-1-phenylpropyl)amino)quinoline-3-carbonitrile]",13 nM,222 nM,–
"CC(C)(C)CNc1c(C#N)cnc2c(C#N)cc(N[C@@H](c3ccc(F)cc3)c3cn(C4(c5cccnn5)CC4)nn3)cc12 [Example 987, (S)-6-(((4-fluorophenyl)(1-(1-(pyridazin-3-yl)cyclopropyl)-1H-1,2,3-triazol-4-yl)methyl)amino)-4-(neopentylamino)quinoline-3,8-dicarbonitrile]",32 nM,69 nM,–
"[2H][C@](Nc1cc(Br)c2ncc(C#N)c(NCC(C)(C)C)c2c1)(c1ccc(F)cc1)c1cn(CC(O)CNC(C)(C)C)nn1 (stereo partly drawn) [Example 988, 8-bromo-6-(((1S)-(1-(3-(tert-butylamino)-2-hydroxypropyl)-1H-1,2,3-triazol-4-yl)(4-fluorophenyl)methyl-d)amino)-4-(neopentylamino)quinoline-3-carbonitrile]",14 nM,334 nM,–
"CC(C)(C)CNc1c(C#N)cnc2c(Cl)cc(N[C@@H](c3ccc(F)cc3)c3cn(C4(c5ccccn5)CC4)nn3)cc12 [Example 991, (S)-8-chloro-6-(((4-fluorophenyl)(1-(1-(pyridin-2-yl)cyclopropyl)-1H-1,2,3-triazol-4-yl)methyl)amino)-4-(neopentylamino)quinoline-3-carbonitrile]",34 nM,136 nM,–
"[2H][C@](Nc1cc(C#N)c2ncc(C#N)c(NCC(C)(C)C)c2c1)(c1ccc(F)cc1)c1cn(CCC2CN2C(C)(C)C)nn1 (stereo partly drawn) [Example 993, 6-(((1S)-(1-(2-(1-(tert-butyl)aziridin-2-yl)ethyl)-1H-1,2,3-triazol-4-yl)(4-fluorophenyl)methyl-d)amino)-4-(neopentylamino) quinoline-3,8-dicarbonitrile]",32 nM,–,3610 nM
"[2H][C@](Nc1cc(C#N)c2ncc(C#N)c(NCC(C)(C)C)c2c1)(c1ccc(F)cc1)c1cn(-c2cccnc2)nn1 [Example 994, (S)-6-(((4-fluorophenyl)(1-(pyridin-3-yl)-1H-1,2,3-triazol-4-yl)methyl-d)amino)-4-(neopentylamino) quinoline-3,8-dicarbonitrile]",33 nM,103 nM,–

# The next compounds have a lower IC50 [1] than those just listed; values first:
IC50 [1],"EC50 [2, 3]",Compound,EC50 [2]
12 nM,111 nM,"CC(C)(C)CNc1c(C#N)cnc2c(Cl)cc(N[C@@H](c3ccc(F)cc3)c3cn(C4(C#N)CC4)nn3)cc12 [Example 989, (S)-8-chloro-6-(((1-(1-cyanocyclopropyl)-1H-1,2,3-triazol-4-yl)(4-fluorophenyl)methyl)amino)-4-(neopentylamino)quinoline-3-carbonitrile]",–
12 nM,76 nM,"CC(C)(C)CNc1c(C#N)cnc2c(Cl)cc(N[C@@H](c3ccc(F)cc3)c3cn(C4(C)CC4)nn3)cc12 [Example 990, (S)-8-chloro-6-(((4-fluorophenyl)(1-(1-methylcyclopropyl)-1H-1,2,3-triazol-4-yl)methyl)amino)-4-(neopentylamino)quinoline-3-carbonitrile]",–
11 nM,39 nM,"CC(C)(C)CNc1c(C#N)cnc2c(C#N)cc(N[C@@H](c3ccc(F)cc3)c3cn(C4(c5ccncc5)CC4)nn3)cc12 [Example 983, (S)-6-(((4-fluorophenyl)(1-(1-(pyridin-4-yl)cyclopropyl)-1H-1,2,3-triazol-4-yl)methyl)amino)-4-(neopentylamino) quinoline-3,8-dicarbonitrile]",–
6 nM,58 nM,"CC(C)(C)CNc1c(C#N)cnc2c(C#N)cc(N[C@@H](c3ccc(F)cc3)c3cn(C4(C#N)CC4)nn3)cc12 [Example 976, (S)-6-(((1-(1-cyanocyclopropyl)-1H-1,2,3-triazol-4-yl)(4-fluorophenyl)methyl)amino)-4-(neopentylamino)quinoline-3,8-dicarbonitrile]",–
6 nM,285 nM,"CC(C)(C)CNc1c(C#N)cnc2c(C#N)cc(N[C@@H](c3ccc(F)cc3)c3cn(C4(C(N)=O)CC4)nn3)cc12 [Example 977, (S)-1-(4-(((3,8-dicyano-4-(neopentylamino)quinolin-6-yl)amino)(4-fluorophenyl)methyl)-1H-1,2,3-triazol-1-yl)cyclopropane-1-carboxamide]",–
5 nM,65 nM,"CC(C)(C)CNc1c(C#N)cnc2c(C#N)cc(N[C@@H](c3ccc(F)cc3)c3cn(C4(C)CC4)nn3)cc12 [Example 978, (S)-6-(((4-fluorophenyl)(1-(1-methylcyclopropyl)-1H-1,2,3-triazol-4-yl)methyl)amino)-4-(neopentylamino)quinoline-3,8-dicarbonitrile]",–
5 nM,76 nM,"CC(C)(C)CNc1c(C#N)cnc2c(Cl)cc(N[C@@H](c3ccc(F)cc3)c3cn(C4(C(N)=O)CCC4)nn3)cc12 [Example 992, (S)-1-(4-(((8-chloro-3-cyano-4-(neopentylamino)quinolin-6-yl)amino)(4-fluorophenyl)methyl)-1H-1,2,3-triazol-1-yl) cyclobutane-1-carboxamide]",–
4 nM,103 nM,"CC(C)(C)CNc1c(C#N)cnc2c(C#N)cc(N[C@@H](c3ccc(F)cc3)c3cn(C4(CO)CC4)nn3)cc12 [Example 979, (S)-6-(((4-fluorophenyl)(1-(1-(hydroxymethyl)cyclopropyl)-1H-1,2,3-triazol-4-yl)methyl)amino)-4-(neopentylamino)quinoline-3,8-dicarbonitrile]",–
4 nM,119 nM,"CC(C)(C)CNc1c(C#N)cnc2c(C#N)cc(N[C@@H](c3ccc(F)cc3)c3cn(C4(C(N)=O)CCC4)nn3)cc12 [Example 985, (S)-1-(4-(((3,8-dicyano-4-(neopentylamino)quinolin-6-yl)amino)(4-fluorophenyl)methyl)-1H-1,2,3-triazol-1-yl)cyclobutane-1-carboxamide]",–
3 nM,321 nM,"CC(C)(C)CNc1c(C#N)cnc2c(C#N)cc(N[C@@H](c3ccccc3)c3cn(C4(C(N)=O)CC4)nn3)cc12 [Example 975, (S)-1-(4-(((3,8-dicyano-4-(neopentylamino)quinolin-6-yl)amino)(phenyl)methyl)-1H-1,2,3-triazol-1-yl)cyclopropane-1-carboxamide]",–

# Source: patent publication US10316017B2, “COT modulators and methods of use thereof” (Gilead Sciences, Inc., priority 2015, dated 2019)
